{"source": "patent US10201590B2", "about": "“Treatment of ocular disorders with anti-connexin proteins and mimetics” (CoDa Therapeutics, Inc., priority 2005, dated 2019)", "key": {"connexin hemichannels": {"target": "T1, connexin hemichannels (Rattus norvegicus, UniProt P08050)", "T1 construct": "leads to the expression of connexin hemichannels; from tissue; host or cells: rat (Wistar p7) spinal cord, 500 micron slices in culture", "T1 sequence (P08050 2-382)": "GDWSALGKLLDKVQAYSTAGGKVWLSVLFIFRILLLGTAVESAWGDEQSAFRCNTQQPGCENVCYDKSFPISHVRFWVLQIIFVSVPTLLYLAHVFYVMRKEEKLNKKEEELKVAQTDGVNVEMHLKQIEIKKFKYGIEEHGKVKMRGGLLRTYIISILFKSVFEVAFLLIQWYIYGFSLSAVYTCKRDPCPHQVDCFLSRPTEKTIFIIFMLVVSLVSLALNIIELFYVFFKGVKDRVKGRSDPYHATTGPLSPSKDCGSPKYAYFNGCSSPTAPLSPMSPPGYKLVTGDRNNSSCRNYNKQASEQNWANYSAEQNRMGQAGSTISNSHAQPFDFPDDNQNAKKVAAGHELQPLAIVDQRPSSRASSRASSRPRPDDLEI", "assay": "Blockage of dye (Lucifer Yellow) uptake by cells in spinal cord slices", "assay_type": "cell-based", "conditions": "500 micromolar peptide, slices incubated four hours, then Lucifer Yellow 30 minutes", "description": "Two functional tests were carried out using peptides. These functional test were (i) blockage of dye (Lucifer Yellow) uptake by cells in spinal cord slices, and (ii) prevention of oedema in spinal cord segments (using connexin 43 specific antisense as a positive control). All peptides used were synthesised by Sigma-Genosys (Australia).\nLucifer Yellow is a small water soluble, fixable, dye able to pass from cell to cell via gap junction channels, but not across the cell membrane. The addition of Lucifer Yellow to the extracellular medium makes it is possible to check for the presence of open gap junction hemichannels. The dye will appear in the cytoplasm of cells which are expressing open channels.\nWistar p7 rats were anesthetized with carbon dioxide and immediately decapitated. The spinal cord was excised and transferred to cold Hank's balanced salt solution (HBSS) at pH 7.4. Excess branch nerves and ligaments were removed and the cord transferred to a manual tissue chopper and a series of 500 micron thick slices cut. The damage caused by the slicing induces connexin 43 upregulation through the entire slice (exacerbated by the gap junction mediated bystander effect), and leads to the expression of connexin hemichannels. Slices were placed onto 3 cm diameter Millipore inserts in 24 well plates and cultured in the presence of mimetic peptides in the media. The final concentration for all 9 peptides tested was 500 micromolar. Controls were; no peptide added, or with 1% ethanol or 1% DMSO added as some peptides were re-dissolved in these compounds (peptides were received lyophilised). Some slices were also treated at this time with connexin 43 specific antisense oligodeoxynucleotides in 30% Pluronic F-127 gel or with gel only, as control experiments.\nSlices were incubated for four hours at 37 degrees C., and then 2.5 mg per ml Lucifer Yellow was added to each well for 30 minutes (in the dark). The tissues were then rinsed twice in PBS, with three further 10 minute washes, and the slices fixed with 4% paraformaldehyde. They were then viewed using a Leica TCS4D laser scanning confocal microscope to assess dye uptake into cells, or not."}, "spinal cord segments": {"test_system": "spinal cord segments", "assay": "Prevention of oedema (swelling) in cultured spinal cord segments", "assay_type": "cell-based, rat", "conditions": "for % swelling of cord segments: 500 micromolar peptide, 24 hours, control segments 21-23%", "description": "FIGS. 1A and 1B show rat spinal cord segments 24 hours after placing into organotypic culture. In the control cord (FIG. 1A) significant swelling is observed at the cut ends (dotted lines mark the original cuts).\nIn both cases, the oedema can be blocked using antisense oligodexoynucleotides (ODNs) which prevent translation of the gap junction protein Connexin 43 (FIG. 1B).\nThe system described in Example 1 was used to examine the effects of the peptides VDCFLSRPTEKT (SEQ ID NO:35) and SRPTEKTIFII (SEQ ID NO:36) on cultured spinal cord segments to test their ability to block swelling.\nThe peptide QQPGCENVCYDK (SEQ ID NO:39) was used a negative control because it allowed dye uptake in the slice cultures described above, and was thus believed to not be able to block oedema in the segments. DMSO was again used as an additional control.\n5 mm long spinal cord segments were placed in separate wells of a 24 well plate in HBSS. The segments were held to the bottom of the well using a small drop of Superglue. The HBSS was removed and 500 micromolar peptide (final concentration) added to media (no peptide for media alone or DMSO controls). The plates were incubated for 24 hours, the media removed and the tissue fixed with Bouin's fixative for 24 hours. Analysis involved photographing cord segments from above, with Image J used to calculate the total area of the cord segment compared with the area of swelling at the cut ends of the segments. Swelling (oedema) was calculated as (cultured area−original area divided by original area) to give % swelling. Single factor Analysis of Variance was used to determine statistical significance, with cut-off level for significance at p=0.05.\nIn this case a dose response was determined with final concentration of peptides used at 5, 10, 50 250 and 500 micromolar."}, "[1]": {"test_system": "glial fibrillary acidic protein (GFAP) expression", "assay": "Immunohistochemical analysis of GFAP (astrocytosis) in spinal cord segments", "assay_type": "cell-based, rat", "conditions": "for Area of GFAP label: 24 hours, control 2450", "description": "Table 7: Areas of GFAP label in images taken in spinal cord 24 hours after slicing. Control cords have high levels of GFAP indicating an inflammatory response and greater bystander effect than the treated segments."}, "connexin 43 hemichannels": {"test_system": "connexin 43 hemichannels", "assay": "Perinatal sheep model of cerebral ischaemia, i.c.v. infusion of mimetic peptide", "assay_type": "in vivo", "description": "The infusion in these animals was continued until 72 h after ischaemia. […] Seizures resolved by approximately 48 h.\nDosages of about 5 μmol/kg brain, 50 μmol/kg and 250 μmol/kg brain weight are also possible. For intravenous (systemic delivery) the effect of log-order increases in plasma concentrations can be used to determine an appropriate dose, starting with loading doses to achieve 0.5 μmol/L (mean fetal blood volume is approximately 350 ml in our perinetal sheep at this age), then 5, 10, 50, 250, 500 and 5000 μM.\nA Romney-Suffolk cross fetal sheep was instrumented between 117 to 124 days of gestation (0.85 term) under general anaesthesia as described elsewhere in detail (Gerrits et al, Pediatr Res 57(3):342-6, (2005); Guan et al., Neuroscience 95(3):831-839, (1999); Guan et al., J Cereb Blood Flow Metab 21(5):493-502, (2001); Gunn et al., J Clin Invest 99(2):248-256, (1997), Gunn et al., Pediatrics 102(5):1098-1106, (1998), Gunn et al., Pediatr Res 46(3):274-280, (1999); Roelfsema et al., J Cereb Blood Flow Metab 24(8):877-886, (2004)). Instrumentation included brachial artery and vein catheters, EKG electrodes, an inflatable occluder around a fetal carotid artery (Gunn et al., 1997; Roelfsema et al., 2004), parietal EEG electrodes 5 and 15 mm anterior, and 10 mm lateral to bregma, a pair of electrodes placed lateral to these to measure cortical impedance (a measure of cytotoxic oedema (Gunn et al., 1997) and a 17-mm-long left i.c.v. cannula 4 mm anterior and 6 mm lateral to bregma. The instrumentation was exteriorised to the maternal flank, uterine and abdominal walls closed, and fetal vascular catheters heparinised (20 IU/ml). The maternal wound was infiltrated with a long acting local anaesthetic bupivacaine (100 mg/20 ml).\nAfter 5 days recovery, fetal cerebral hypoperfusion was induced by a 30 minute period of bilateral carotid artery occlusion (Gunn et al., 1997; Roelfsema et al., 2004; Tan et al., Ann Neurol 32(5):677-682, (1992); Tan et al., Pediatr Res 39(5):791-797, (1996)). […]"}, "[2]": {"conditions": "near-term fetal sheep, i.c.v. infusion from 90 min after 30 min ischaemia until 72 h"}}, "note": "“Also recorded” adds a separate entry of the source."}
{"sequence": "QSAFRCNTQQPG [connexin 43 mimetic peptide, E1]", "values": [{"measurement": "dye (Lucifer Yellow) uptake / block of hemichannels", "setting": "connexin hemichannels", "value": "comparable with control slices"}]}
{"sequence": "VCYDKSFPISHVR [connexin 43 mimetic peptide, E1]", "values": [{"measurement": "dye (Lucifer Yellow) uptake / block of hemichannels", "setting": "connexin hemichannels", "value": "comparable with control slices"}]}
{"sequence": "QQPGCENVCYDK [connexin 43 mimetic peptide, E1; used as negative control]", "values": [{"measurement": "dye (Lucifer Yellow) uptake / block of hemichannels", "setting": "connexin hemichannels", "value": "comparable with control slices; also recorded: did not block hemichannels"}, {"measurement": "% swelling of cord segments", "setting": "spinal cord segments", "value": 23, "unit": "%"}]}
{"sequence": "VDCFLSRPTEKT [connexin 43 mimetic peptide, E2]", "values": [{"measurement": "dye (Lucifer Yellow) uptake / block of hemichannels", "setting": "connexin hemichannels", "value": "block hemichannels"}, {"measurement": "dye (Lucifer Yellow) uptake / block of hemichannels", "setting": "connexin hemichannels; listed as SEQ ID NO: 35", "value": "capable of preventing and/or blocking and/or closing the opening of the hemichannels"}, {"measurement": "% swelling of cord segments", "setting": "spinal cord segments", "value": 15, "unit": "%"}]}
{"sequence": "FEVAFLLIQWI [connexin 43 mimetic peptide, M3 & E2]", "values": [{"measurement": "dye (Lucifer Yellow) uptake / block of hemichannels", "setting": "connexin hemichannels", "value": "comparable with control slices"}]}
{"sequence": "LLIQWYIGFSL [connexin 43 mimetic peptide, E2]", "values": [{"measurement": "dye (Lucifer Yellow) uptake / block of hemichannels", "setting": "connexin hemichannels", "value": "comparable with control slices"}]}
{"sequence": "LGTAVESAWGDEQ [connexin 43 mimetic peptide, M1 & E1]", "values": [{"measurement": "dye (Lucifer Yellow) uptake / block of hemichannels", "setting": "connexin hemichannels", "value": "comparable with control slices"}]}
{"sequence": "SLSAVYTCKRDPCPHQ [connexin 43 mimetic peptide, E2]", "values": [{"measurement": "dye (Lucifer Yellow) uptake / block of hemichannels", "setting": "connexin hemichannels", "value": "comparable with control slices"}]}
{"sequence": "SRPTEKTIFII [connexin 43 mimetic peptide, E2 & M4]", "values": [{"measurement": "Area of GFAP label", "setting": "[1]; 5 micromolar", "value": 300, "unit": "square units"}, {"measurement": "Area of GFAP label", "setting": "[1]; 50 micromolar", "value": 950, "unit": "square units"}, {"measurement": "Area of GFAP label", "setting": "[1]; 250 micromolar", "value": 1000, "unit": "square units"}, {"measurement": "Area of GFAP label", "setting": "[1]; 500 micromolar", "value": 750, "unit": "square units"}, {"measurement": "astrocytosis (GFAP expression)", "setting": "[1]; 24 hours in culture", "value": "reduced astrocytosis"}, {"measurement": "most effective concentration at preventing the inflammatory response (GFAP)", "setting": "[1]; 24 hours in culture", "value": 5, "unit": "µM"}, {"measurement": "dye (Lucifer Yellow) uptake / block of hemichannels", "setting": "connexin hemichannels", "value": "block hemichannels"}, {"measurement": "dye (Lucifer Yellow) uptake / block of hemichannels", "setting": "connexin hemichannels; listed as SEQ ID NO: 36", "value": "capable of preventing and/or blocking and/or closing the opening of the hemichannels"}, {"measurement": "effect in perinatal sheep experiment", "setting": "connexin 43 hemichannels; 5 μmol/kg brain weight in 1 ml artificial CSF i.c.v. over one hour, then 1 ml per day for 72 hours", "value": "significant effect"}, {"measurement": "cortical impedance (cell swelling, cytotoxic oedema)", "setting": "connexin 43 hemichannels; [2]", "value": "markedly delayed and attenuated rise in cerebral impedance"}, {"measurement": "seizures after cerebral ischaemia", "setting": "connexin 43 hemichannels; [2]", "value": "changed seizures from continuous to a later onset of discrete, separate seizure events"}, {"measurement": "blocking of oedema at middle range concentration", "setting": "spinal cord segments; 50 micromolar, repeat experiments", "value": "somewhat less effective"}, {"measurement": "% swelling of cord segments", "setting": "spinal cord segments", "value": 17, "unit": "%"}, {"measurement": "most effective concentration for blocking of oedema (least oedema)", "setting": "spinal cord segments; dose response 5, 10, 50 250 and 500 micromolar, vs media alone p=0.001", "value": 5, "unit": "µM"}]}
